From patent US20120122931A1, “INDOLE DERIVATIVE OR PHARMACEUTICALLY ACCEPTABLE SALT THEREOF” (KISSEI PHARMACEUTICAL CO., LTD., priority 2009, published 2012)

Tests used:
[1] = molecular target: T1, rat EP1 receptor (Rattus norvegicus, UniProt P70597); assay: Test for confirmation of EP1 receptor antagonism: inhibition of prostaglandin E2-induced increase in intracellular calcium concentration (Method A or Method B); assay type: cell-based; conditions: rat EP1 receptor-expressing cells, prostaglandin E2 10 nM
T1 construct: expressed in transfected cells; host or cells: COS-1 cells, transient transfection with Lipofectamine 2000
T1 sequence (P70597 1-405): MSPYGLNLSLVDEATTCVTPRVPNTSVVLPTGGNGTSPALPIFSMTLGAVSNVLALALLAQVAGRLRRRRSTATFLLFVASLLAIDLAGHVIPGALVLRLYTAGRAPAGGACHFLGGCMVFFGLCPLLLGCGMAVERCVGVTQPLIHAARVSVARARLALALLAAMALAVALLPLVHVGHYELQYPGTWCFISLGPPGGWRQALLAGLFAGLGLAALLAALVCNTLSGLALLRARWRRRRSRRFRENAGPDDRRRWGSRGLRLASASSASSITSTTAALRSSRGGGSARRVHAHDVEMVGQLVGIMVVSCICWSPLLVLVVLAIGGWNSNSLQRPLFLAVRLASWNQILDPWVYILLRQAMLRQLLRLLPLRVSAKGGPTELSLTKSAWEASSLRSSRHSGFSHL
Outline: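 Rat EP1 (NM_013100-matching clone) transiently expressed in COS-1 cells via Lipofectamine 2000, 200 ng vector/well, transfected about 2 h after seeding at 5×10^4 cells/well. Cells cultured at 37° C, 5% CO2.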

[2] = test system: sulprostone-induced bladder contraction; assay: Inhibitory effect of compound on sulprostone-induced bladder contraction; assay type: in vivo; conditions: test agent 1.0 mg/kg intravenously, sulprostone 0.3 mg/kg subcutaneously, female SD rats
Protocol: Female SD rats were used. Under urethane anesthesia (1.25 g/kg, administered subcutaneously), a tracheal cannula (Size 8, HIBIKI) and a femoral vein cannula for administration (23G needle-equipped PESO) were inserted thereinto. The bladder cannula (PESO) was inserted from the bladder apex. The bladder cannula was connected to a three-way stopcock, and then, one was connected to a pressure transducer and the other was connected to a syringe filled with saline. Saline was injected to the bladder at an injection rate of 3.6 mL/hour and the bladder contraction pressure was recorded at the time of injection with a recorder (RECTI-HORITZ-8K, NEC Corporation). After 10 minutes from stabilization of the bladder contraction pressure during urination, sulprostone was administered subcutaneously (0.3 mg/kg). Then, at the time point when the bladder contraction pressure became constant, a test agent was administered intravenously (1.0 mg/kg). An average bladder contraction pressure during the 10 minutes period before administration of sulprostone was taken as a baseline (0%). Further, an average bladder contraction pressure during the 10 minutes period before administration of the test agent was taken as a maximum bladder contraction pressure (100%). […] The ratio of this measured value to the maximum bladder contraction pressure was calculated by the following equation and taken as an average bladder contraction rate after administration of the test agent: (Average Bladder Contraction Rate after Administration of Test Agent (%))=(Average Bladder Contraction Pressure after Administration of Test Agent)/(Maximum Bladder Contraction Pressure). In addition, the difference between the maximum bladder contraction rate (100%) and the average bladder contraction rate (%) after administration of the test agent was calculated by the following equation and taken as a bladder contraction inhibition rate of the test agent: (Bladder Contraction Inhibition Rate)=100%−(Average Bladder Contraction Rate after Administration of Test Agent (%)).

[3] = Method A (Fluo-4 NW, FlexStation)

## COc1ccc2c(Cc3cccc(C(=O)O)n3)c(-c3cccc(F)c3)[nH]c2c1 [Example 11-5, 6-[2-(3-fluorophenyl)-6-methoxy-1H-indol-3-ylmethyl]pyridine-2-carboxylic acid]
[1]; Method B (Calcium kit II Fluo 4, FDSS 7000)
  IC50: 14 nM
[2]
  Bladder Contraction Inhibition Rate (%) 15 Minutes: 79.7%
  Bladder Contraction Inhibition Rate (%): 81.9%

## COc1ccc2c(Cc3cccc(C(=O)O)c3)c(-c3ccccc3)[nH]c2c1 [Example 4-2, 3-(6-methoxy-2-phenyl-1H-indol-3-ylmethyl)benzoic acid]
[1]; [3]
  IC50: 32 nM
[2]
  Bladder Contraction Inhibition Rate (%) 15 Minutes: 78.3%
  Bladder Contraction Inhibition Rate (%): 80.4%

## COc1ccc2c(Cc3cccc(C(=O)O)n3)c(-c3ccccc3)[nH]c2c1 [Example 4-1, 6-(6-methoxy-2-phenyl-1H-indol-3-ylmethyl)pyridine-2-carboxylic acid]
[1]; [3]
  IC50: 10 nM
[2]
  Bladder Contraction Inhibition Rate (%) 15 Minutes: 90.1%
  Bladder Contraction Inhibition Rate (%): 94.2%

## COc1ccc2c(Cc3cccc(C(=O)O)n3)c(-c3ccsc3)[nH]c2c1 [Example 11-1, 6-(6-methoxy-2-thiophen-3-yl-1H-indol-3-ylmethyl)pyridine-2-carboxylic acid]
[1]; [3]
  IC50: 11 nM
[2]
  Bladder Contraction Inhibition Rate (%) 15 Minutes: 86.1%
  Bladder Contraction Inhibition Rate (%): 76.8%

## COc1ccc2c(Cc3cccc(C(=O)O)n3)c(-c3csc(C)c3)[nH]c2c1 [Example 11-20, 6-[6-methoxy-2-(5-methylthiophen-3-yl)-1H-indol-3-ylmethyl]pyridine-2-carboxylic acid]
[1]; [3]
  IC50: 26 nM
[2]
  Bladder Contraction Inhibition Rate (%) 15 Minutes: 81.4%
  Bladder Contraction Inhibition Rate (%): 82.9%
